These results are taken from PubChem BioAssay AID270 (DTP/NCI, 2004).

This test deals with BDF1 mice, s.c. Lewis lung carcinoma, T/C %. As to the kind of experiment: NCI In Vivo Anticancer Drug Screen. Data for tumor model Lewis Lung Carcinoma (subcutaneous) in B6D2F1 (BDF1) mice. Put shortly: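 First, mice carry a transplantable tumor. Next, groups receive either compound or vehicle. Finally, survival or tumor dimensions in the dosed animals are divided by the corresponding control figure.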

The mark [1] stands for this setting: endpoint: mean tumor weight, dose: 100.0 mg/kg/injection, schedule: Q01DX011 (ip), vehicle: carboxymethylcellulose (CMC), higher = larger tumour.
[2] abbreviates: endpoint: mean tumor weight, dose: 0.5 mg/kg/injection, schedule: Q01DX011 (ip), vehicle: other, higher = larger tumour.
The mark [3] stands for this setting: endpoint: mean tumor weight, dose: 1.0 mg/kg/injection, schedule: Q01DX011 (ip), vehicle: other, higher = larger tumour.

Molecules are shown by their SMILES. Where “and” joins values, the source holds several entries; their conditions need not be identical. Equal entries are not always repeated. Records with an inconclusive call do not appear.

As for `O=C1C=CC(=Nc2ccc(O)c3ncccc23)c2cccnc21`, the T/C was 94 % of control (endpoint: mean tumor weight, dose: 12.5 mg/kg/injection, schedule: Q01DX011 (ip), vehicle: saline, higher = larger tumour); 49 % of control (endpoint: mean tumor weight, dose: 25.0 mg/kg/injection, schedule: Q01DX011 (ip), vehicle: saline, higher = larger tumour); 26 % of control (endpoint: mean tumor weight, dose: 50.0 mg/kg/injection, schedule: Q01DX011 (ip), vehicle: saline, higher = larger tumour).

For the compound `COc1cc(C[C@H]2c3cc(OC)c(OC)cc3CCN2C)c(Oc2cc3c(cc2OC)-c2c(OC)c(OC)cc4c2[C@H](C3)N(C)CC4)cc1OC`, the T/C reads like this: (endpoint: mean tumor weight, dose: 50.0 mg/kg/injection, schedule: Q01DX011 (ip), vehicle: carboxymethylcellulose (CMC), higher = larger tumour) 49 % of control; under setting [1], 26 % of control.

Turning to `N#CCCN(Cc1ccccc1)C(N)=O`, the T/C runs as follows: under setting [2], 73 % of control; under setting [3], 68 % of control; (endpoint: mean tumor weight, dose: 2.0 mg/kg/injection, schedule: Q01DX011 (ip), vehicle: other, higher = larger tumour) 48 % of control; (endpoint: mean tumor weight, dose: 4.0 mg/kg/injection, schedule: Q01DX011 (ip), vehicle: other, higher = larger tumour) 55 % of control.

On to `O=CN1CCOCC1`, for which the T/C (endpoint: mean tumor weight, dose: 37.0 mg/kg/injection, schedule: Q01DX011 (ip), vehicle: saline, higher = larger tumour) is 90 % of control; the T/C (endpoint: mean tumor weight, dose: 55.0 mg/kg/injection, schedule: Q01DX011 (ip), vehicle: saline, higher = larger tumour) is 152 % of control; the T/C (endpoint: mean tumor weight, dose: 83.0 mg/kg/injection, schedule: Q01DX011 (ip), vehicle: saline, higher = larger tumour) was 103 % of control; the T/C (endpoint: mean tumor weight, dose: 250.0 mg/kg/injection, schedule: Q01DX011 (ip), vehicle: saline, higher = larger tumour) was 81 % of control; the T/C (endpoint: mean tumor weight, dose: 500.0 mg/kg/injection, schedule: Q01DX011 (ip), vehicle: saline, higher = larger tumour) is 100 % of control; the T/C (endpoint: mean tumor weight, dose: 1000.0 mg/kg/injection, schedule: Q01DX011 (ip), vehicle: saline, higher = larger tumour) was 92 % of control.

As to `O=NN(CCCl)C(=O)Nc1ccc2c(c1)OCO2`, the T/C runs as follows: (endpoint: median survival time, dose: 3.13 mg/kg/injection, schedule: Q01DX009 (ip), vehicle: saline with Tween-80, higher = longer survival) 98 % of control; (endpoint: median survival time, dose: 6.25 mg/kg/injection, schedule: Q01DX009 (ip), vehicle: saline with Tween-80, higher = longer survival) 116 % of control; (endpoint: median survival time, dose: 12.5 mg/kg/injection, schedule: Q01DX009 (ip), vehicle: saline with Tween-80, higher = longer survival) 102 % of control.

For `Cc1ncc([N+](=O)[O-])n1CCO`, the T/C by setting is: (endpoint: median survival time, dose: 37.5 mg/kg/injection, schedule: Q01DX009 (ip), vehicle: Klucel (hydroxypropylcellulose) (HPC), higher = longer survival) 98 % of control; (endpoint: median survival time, dose: 37.5 mg/kg/injection, schedule: Q04DX003 (ip), vehicle: Klucel (hydroxypropylcellulose) (HPC), higher = longer survival) 92 % of control; (endpoint: median survival time, dose: 75.0 mg/kg/injection, schedule: Q01DX009 (ip), vehicle: Klucel (hydroxypropylcellulose) (HPC), higher = longer survival) 106 % of control; (endpoint: median survival time, dose: 75.0 mg/kg/injection, schedule: Q04DX003 (ip), vehicle: Klucel (hydroxypropylcellulose) (HPC), higher = longer survival) 97 % of control; (endpoint: median survival time, dose: 150.0 mg/kg/injection, schedule: Q01DX009 (ip), vehicle: Klucel (hydroxypropylcellulose) (HPC), higher = longer survival) 96 % of control; (endpoint: median survival time, dose: 150.0 mg/kg/injection, schedule: Q04DX003 (ip), vehicle: Klucel (hydroxypropylcellulose) (HPC), higher = longer survival) 96 % of control. Moreover, the T/C (endpoint: median survival time, dose: 300.0 mg/kg/injection, schedule: Q01DX009 (ip), vehicle: Klucel (hydroxypropylcellulose) (HPC), higher = longer survival) was 97 % of control; the T/C (endpoint: median survival time, dose: 300.0 mg/kg/injection, schedule: Q04DX003 (ip), vehicle: Klucel (hydroxypropylcellulose) (HPC), higher = longer survival) is 100 % of control; the T/C (endpoint: median survival time, dose: 600.0 mg/kg/injection, schedule: Q01DX009 (ip), vehicle: Klucel (hydroxypropylcellulose) (HPC), higher = longer survival) was 105 % of control; the T/C (endpoint: median survival time, dose: 600.0 mg/kg/injection, schedule: Q04DX003 (ip), vehicle: Klucel (hydroxypropylcellulose) (HPC), higher = longer survival) was 91 % of control.

For the compound `O=C(N/N=C/c1ccc(O)cc1O)c1cccnc1`, the T/C is, setting by setting: (endpoint: median survival time, dose: 6.25 mg/kg/injection, schedule: Q01DX009 (ip), vehicle: olive oil, sesame oil, peanut oil, higher = longer survival) 91 % of control; (endpoint: median survival time, dose: 25.0 mg/kg/injection, schedule: Q01DX009 (ip), vehicle: olive oil, sesame oil, peanut oil, higher = longer survival) 101 % of control.

Regarding `COc1cc([C@@H]2c3cc4c(cc3[C@H](O)[C@H]3COC(=O)[C@H]23)OCO4)cc(OC)c1OC`, the T/C was 84 % of control (endpoint: mean tumor weight, dose: 1.0 mg/kg/injection, schedule: Q01DX011 (ip), vehicle: carboxymethylcellulose (CMC), higher = larger tumour) and 36 % of control (endpoint: mean tumor weight, dose: 2.0 mg/kg/injection, schedule: Q01DX011 (ip), vehicle: carboxymethylcellulose (CMC), higher = larger tumour).

For `COC(=O)c1nc(-c2ccc3c(n2)C(=O)C(N)=C(OC)C3=O)c(N)c(-c2ccc(OC)c(OC)c2O)c1C`, the T/C (endpoint: mean tumor weight, dose: 0.25 mg/kg/injection, schedule: Q01DX011 (ip), vehicle: other, higher = larger tumour) was 65 % of control; the T/C under setting [2] is 70 % of control; the T/C under setting [3] is 45 % of control.

`CC(CCc1cccc2ccccc12)(C(=O)O)C(=O)O`: the T/C is 72 % of control (endpoint: mean tumor weight, dose: 50.0 mg/kg/injection, schedule: Q01DX011 (ip), vehicle: acid diluted with saline, higher = larger tumour); 101 % of control (endpoint: mean tumor weight, dose: 63.0 mg/kg/injection, schedule: Q01DX011 (ip), vehicle: carboxymethylcellulose (CMC), higher = larger tumour); 85 % of control (endpoint: mean tumor weight, dose: 100.0 mg/kg/injection, schedule: Q01DX011 (ip), vehicle: acid diluted with saline, higher = larger tumour); 91 % of control (endpoint: mean tumor weight, dose: 200.0 mg/kg/injection, schedule: Q01DX011 (ip), vehicle: acid diluted with saline, higher = larger tumour); 59 % of control (endpoint: mean tumor weight, dose: 400.0 mg/kg/injection, schedule: Q01DX011 (ip), vehicle: acid diluted with saline, higher = larger tumour).

In the case of `O=NN(CCCl)C(=O)NC1CCC(C(=O)O)CC1` (centres undefined), the T/C is, setting by setting: (endpoint: median survival time, dose: 3.0 mg/kg/injection, schedule: Q01DX001 (ip), vehicle: saline with Tween-80, higher = longer survival) 97 % of control and 117 % of control; (endpoint: median survival time, dose: 5.0 mg/kg/injection, schedule: Q01DX001 (ip), vehicle: saline with Tween-80, higher = longer survival) 116 % of control; (endpoint: median survival time, dose: 7.0 mg/kg/injection, schedule: Q01DX001 (ip), vehicle: saline with Tween-80, higher = longer survival) 110 % of control; (endpoint: median survival time, dose: 8.0 mg/kg/injection, schedule: Q01DX001 (ip), vehicle: saline with Tween-80, higher = longer survival) 124 % of control; (endpoint: median survival time, dose: 11.0 mg/kg/injection, schedule: Q01DX001 (ip), vehicle: saline with Tween-80, higher = longer survival) 113 % of control; (endpoint: median survival time, dose: 12.0 mg/kg/injection, schedule: Q01DX001 (ip), vehicle: saline with Tween-80, higher = longer survival) 121 % of control. For the same compound, the T/C by setting is: (endpoint: median survival time, dose: 13.0 mg/kg/injection, schedule: Q01DX001 (ip), vehicle: saline with Tween-80, higher = longer survival) 111 % of control and 288 % of control and 180 % of control; (endpoint: median survival time, dose: 17.0 mg/kg/injection, schedule: Q01DX001 (ip), vehicle: saline with Tween-80, higher = longer survival) 121 % of control; (endpoint: median survival time, dose: 20.0 mg/kg/injection, schedule: Q01DX001 (ip), vehicle: saline with Tween-80, higher = longer survival) 206 % of control [middle of 5 runs]; (endpoint: median survival time, dose: 26.0 mg/kg/injection, schedule: Q01DX001 (ip), vehicle: saline with Tween-80, higher = longer survival) 109 % of control; (endpoint: median survival time, dose: 27.0 mg/kg/injection, schedule: Q01DX001 (ip), vehicle: saline with Tween-80, higher = longer survival) 196 % of control; (endpoint: median survival time, dose: 30.0 mg/kg/injection, schedule: Q01DX001 (ip), vehicle: saline with Tween-80, higher = longer survival) 228 % of control and 288 % of control and 219 % of control.

Regarding `CC(=O)[C@H]1CC[C@H]2[C@@H]3CCC4=CC(=O)CC[C@]4(C)[C@H]3CC[C@]12C`, the T/C by setting is: (endpoint: median survival time, dose: 12.5 mg/kg/injection, schedule: Q02DX009 (ip), vehicle: Klucel (hydroxypropylcellulose) (HPC), higher = longer survival) 99 % of control; (endpoint: median survival time, dose: 25.0 mg/kg/injection, schedule: Q02DX009 (ip), vehicle: Klucel (hydroxypropylcellulose) (HPC), higher = longer survival) 107 % of control; (endpoint: median survival time, dose: 50.0 mg/kg/injection, schedule: Q02DX009 (ip), vehicle: Klucel (hydroxypropylcellulose) (HPC), higher = longer survival) 90 % of control; (endpoint: median survival time, dose: 100.0 mg/kg/injection, schedule: Q02DX009 (ip), vehicle: Klucel (hydroxypropylcellulose) (HPC), higher = longer survival) 95 % of control; (endpoint: median survival time, dose: 200.0 mg/kg/injection, schedule: Q02DX009 (ip), vehicle: Klucel (hydroxypropylcellulose) (HPC), higher = longer survival) 101 % of control; (endpoint: median survival time, dose: 400.0 mg/kg/injection, schedule: Q02DX009 (ip), vehicle: Klucel (hydroxypropylcellulose) (HPC), higher = longer survival) 96 % of control.

Consider `CC(C)C(=O)[O][Sn]([c]1ccccc1)([c]1ccccc1)[c]1ccccc1`, for which the T/C was 110 % of control (endpoint: median survival time, dose: 3.0 mg/kg/injection, schedule: Q01DX009 (ip), vehicle: saline with Tween-80, higher = longer survival); 106 % of control (endpoint: median survival time, dose: 6.0 mg/kg/injection, schedule: Q01DX009 (ip), vehicle: saline with Tween-80, higher = longer survival); 97 % of control (endpoint: median survival time, dose: 12.0 mg/kg/injection, schedule: Q01DX009 (ip), vehicle: saline with Tween-80, higher = longer survival).

For `OCc1ccccc1OC1OC(CO)C(O)C(O)C1O` (centres undefined), the T/C is, setting by setting: under setting [1], 106 % of control; (endpoint: mean tumor weight, dose: 200.0 mg/kg/injection, schedule: Q01DX011 (ip), vehicle: carboxymethylcellulose (CMC), higher = larger tumour) 86 % of control; (endpoint: mean tumor weight, dose: 400.0 mg/kg/injection, schedule: Q01DX011 (ip), vehicle: carboxymethylcellulose (CMC), higher = larger tumour) 100 % of control.
